Measurements reported in patent US20240116945A1, “EXATECAN-DERIVED TOPOISOMERASE-1 INHIBITORS PHARMACEUTICAL COMPOSITIONS, AND USES THEREOF” (Merck Sharp & Dohme LLC, priority 2022, published 2024).

These molecules were tested on Jeko-1 cells (assay: CellTiter-Glo 2.0 Cytotoxicity Assay). Settings: Homo sapiens, JeKo-1, read-out: Jeko-1 EC50 (nM), Jeko-1 cells, 3000 cells/well; compounds added Day 1; CellTiter-Glo 2.0 luminescence read on Day 4 or 5.
Type: cell-based
Method: Reaction progress and synthetic intermediate analysis were assessed by LCMS (UV detection with ESI, APCI, or other mass detection) when applicable using a MeCN/water gradient with either TFA, formic acid, or NH4HCO3 modifier. Silica gel and reverse-phase flash column chromatography were conducted with commercially available pre-packed columns. Reverse-phase preparative HPLC purification was performed on preparative HPLC instruments with UV and MS detection using a MeCN/water gradient with either TFA, formic acid, or NH4OH modifier. ^1H NMR spectra were collected at room temperature, and chemical shifts are reported in ppm relative to the residual proteo-solvent signals, and multiplicities, coupling constants (where applicable), and signal integrations are listed parenthetically. Unless otherwise noted, all EC50 data presented in tables refers to the CellTiter-Glo® 2.0 Cytotoxicity Assay that is described in the Biological Assay section.
CellTiter-Glo® 2.0 Cytotoxicity Assay
Step 1: Seed 384-Well Plates for Assay (45 μL Per Well) on Day 0
Jeko-1 cells were quickly thawed in a cryo-vial by incubating them in a 37° C. water bath for <1 min until there is just a small bit of ice left in the vial. The vial was promptly removed and wiped down with 70% ethanol. The cells were transferred from the vial to a sterile centrifuge tube containing 8 mL of pre-warmed cell culture medium. The vial was flushed with an additional 1 mL of medium to ensure complete transfer of cells to the centrifuge tube. The cells were then centrifuged at 150×g for 5 minutes. The supernatant was aspirated, and the cell pellet was resuspended in 10-20 mL cell culture medium. Cells were counted using Vi-cell and prepared 6.6×10^4 cells/ml, 3000 cells/45 μL per well. Then added 45 μL/well of cells into Corning® 384-well Low Flange White Flat Bottom Polystyrene TC-treated Microplates (Corning, Cat #3570) using Standard Cassette Combi (if needed, dispense 1 dummy plate at 20 μL to help normalize Combi, using medium speed). The plates were spun down at 150×g for 30 seconds.
Step 2: Add Compounds on Day 1
The compound plates and reference compound stock were taken out and allowed to thaw at RT. The tubes were centrifuged at 2000×g for 30 seconds. The 10× Intermediate assay plates (Greiner plate, Cat #781280) were prepared using an Echo liquid handler. Proper buffer (HBSS (Gibco, Cat #14025-092)+10 mM HEPES (Gibco, Cat #15630-080)+0.1% BSA (Sigma, Cat #A9576)) were used to make serial dilutions. Media (no cells) was used for Max_E. Compound (5 μL of 10×) was transferred from intermediate plate to assay plate using a Bravo liquid handler using a very slow speed so the cell monolayer wasn't disturbed. The plates were spun down at 150×g for 30 seconds.
Step 3: CellTiter-Glo 2.0 Assay (Promega, Cat #G9242) on Day 4 or 5 (CellTiter-Glo Kit Stored at −70° C.)
The CellTiter-Glo® 2.0 Reagent was thawed at 4° C. overnight, taking care not to expose the reagent to temperatures above 25° C.). The kit was equilibrated to RT for approximately 30 minutes. CellTiter-Glo® 2.0 Reagent (20 μl) was added to 50 μl of medium containing cells using Standard Cassette Combi. The contents were mixed for 2-3 minutes on an orbital shaker to induce cell lysis. The plates were spun down at 150×g for 30 seconds. The plates were allowed to incubate at RT for 5 minutes to stabilize the luminescent signal.
Illustrative compounds of the present disclosure were tested in the above assay in Example 15, and results are provided in the Table 9 below: […]

First: CC[C@@]1(O)C(=O)OCc2c1cc1n(c2=O)Cc2c-1nc1cc(F)c(C)c3c1c2[C@@H](NC(=O)[C@H](O)CCO)CC3 (single isomer, unassigned) [Compound 1]
Second: CC[C@@]1(O)C(=O)OCc2c1cc1n(c2=O)Cc2c-1nc1cc(F)c(C)c3c1c2[C@@H](NC(=O)[C@@H](O)CCO)CC3 [Compound 2]
The EC50 of the first is 4.7-fold lower: 1.4 nM for the first, 6.6 nM for the second.

First: CC[C@@]1(O)C(=O)OCc2c1cc1n(c2=O)Cc2c-1nc1cc(F)c(C)c3c1c2[C@@H](NC(=O)C(F)(F)C(C)O)CC3 (single isomer, unassigned) [Compound 7]
Second: CC[C@@]1(O)C(=O)OCc2c1cc1n(c2=O)Cc2c-1nc1cc(F)c(C)c3c1c2[C@@H](NC(=O)C(F)(F)CO)CC3 [Compound 9]
The EC50 of the first is 2.4-fold lower: 1.7 nM for the first, 4 nM for the second. The first is the more potent here.

Compared with `CC[C@@]1(O)C(=O)OCc2c1cc1n(c2=O)Cc2c-1nc1cc(F)c(C)c3c1c2[C@@H](NC(=O)C(CO)C(F)(F)F)CC3` (single isomer, unassigned) [Compound 10], `CC[C@@]1(O)C(=O)OCc2c1cc1n(c2=O)Cc2c-1nc1cc(F)c(C)c3c1c2[C@@H](NC(=O)C(N)C(F)(F)F)CC3` (single isomer, unassigned) [Compound 14] is 1.6-fold lower in EC50: 4.4 nM for the first, 2.8 nM for the second. The second is the more potent here.

Going from `CC[C@@]1(O)C(=O)OCc2c1cc1n(c2=O)Cc2c-1nc1cc(F)c(C)c3c1c2[C@@H](NC(=O)C(C)(N)C(F)(F)F)CC3` (single isomer, unassigned) [Compound 16] to `CC[C@@]1(O)C(=O)OCc2c1cc1n(c2=O)Cc2c-1nc1cc(F)c(C)c3c1c2[C@@H](NC(=O)C(C)(N)C(F)F)CC3` (stereo partly drawn) [Compound 13], the EC50 rises from 1.6 nM to 4.2 nM (2.6-fold).

Going from `CC[C@@]1(O)C(=O)OCc2c1cc1n(c2=O)Cc2c-1nc1cc(F)c(C)c3c1c2[C@@H](NC(=O)C(CO)C1CC1)CC3` (single isomer, unassigned) [Compound 22] to `CC[C@@]1(O)C(=O)OCc2c1cc1n(c2=O)Cc2c-1nc1cc(F)c(C)c3c1c2[C@@H](NC(=O)[C@@H](O)CO)CC3` [Compound 28, (1S,9S)-1-((S)-2,3-dihydroxypropanamido)-9-ethyl-5-fluoro-9-hydroxy-4-methyl-10,13-dioxo-2,3,9,10,13,15-hexahydro-1H,12H-benzo[de]pyrano[3′,4′: 6,7]indolizino[1,2-b]quinolin-7-ium hexafluorophosphate (V)], the EC50 rises from 4.3 nM to 9.7 nM (2.3-fold). The first is the more potent here.

`CC[C@@]1(O)C(=O)OCc2c1cc1n(c2=O)Cc2c-1nc1cc(F)c(C)c3c1c2[C@@H](NC(=O)C(C)(F)CO)CC3` (single isomer, unassigned) [Compound 36] and `CC[C@@]1(O)C(=O)OCc2c1cc1n(c2=O)Cc2c-1nc1cc(F)c(C)c3c1c2[C@@H](NC(=O)C(C)(CO)CO)CC3` [Compound 6] are within 1.5-fold of each other in EC50: 2.4 nM for the first, 2.9 nM for the second.

`CC[C@@]1(O)C(=O)OCc2c1cc1n(c2=O)Cc2c-1nc1cc(F)c(C)c3c1c2[C@@H](NC(=O)C(C)(CCO)C(F)F)CC3` (single isomer, unassigned) [Compound 39] and `CC[C@@]1(O)C(=O)OCc2c1cc1n(c2=O)Cc2c-1nc1cc(F)c(C)c3c1c2[C@@H](NC(=O)[C@H](O)C(C)(C)CO)CC3` [Compound 3] are within 1.5-fold of each other in EC50: 4.9 nM for the first, 4.1 nM for the second.

`CC[C@@]1(O)C(=O)OCc2c1cc1n(c2=O)Cc2c-1nc1cc(F)c(C)c3c1c2[C@@H](NC(=O)C(C)(N)C1CC1)CC3` (stereo partly drawn) [Compound 20] and `CC[C@@]1(O)C(=O)OCc2c1cc1n(c2=O)Cc2c-1nc1cc(F)c(C)c3c1c2[C@@H](NC(=O)[C@H](O)CCOC(F)F)CC3` [Compound 21, (R)-4-(difluoromethoxy)-N-((1S,9S)-9-ethyl-5-fluoro-9-hydroxy-4-methyl-10,13-dioxo-2,3,9,10,13,15-hexahydro-1H,12H-benzo[de]pyrano[3′,4′: 6,7]indolizino[1,2-b]quinolin-1-yl)-2-hydroxybutanamide] are within 1.5-fold of each other in EC50: 5.2 nM for the first, 3.6 nM for the second.

Same assay, conditions: Homo sapiens; Jeko-1 cells, 3000 cells/well; compounds added Day 1; CellTiter-Glo 2.0 luminescence read on Day 4 or 5; read-out: Jeko-1 EC50

Going from `CC[C@@]1(O)C(=O)OCc2c1cc1n(c2=O)Cc2c-1nc1cc(F)c(C)c3c1c2[C@@H](NC(=O)C(C)(C)CO)CC3` [Compound 24, N-((1S,9S)-9-ethyl-5-fluoro-9-hydroxy-4-methyl-10,13-dioxo-2,3,9,10,13,15-hexahydro-1H,12H-benzo[de]pyrano[3′,4′: 6,7]indolizino[1,2-b]quinolin-1-yl)-3-hydroxy-2,2-dimethylpropanamide] to `CC[C@@]1(O)C(=O)OCc2c1cc1n(c2=O)Cc2c-1nc1cc(F)c(C)c3c1c2[C@@H](NC(=O)CCO)CC3` [Compound 27], the EC50 rises from 1.8 nM to 3.1 nM (1.7-fold). The first is the more potent here.

`CC[C@@]1(O)C(=O)OCc2c1cc1n(c2=O)Cc2c-1nc1cc(F)c(C)c3c1c2[C@@H](NC(=O)C[C@H](C)O)CC3` [Compound 25] and `CC[C@@]1(O)C(=O)OCc2c1cc1n(c2=O)Cc2c-1nc1cc(F)c(C)c3c1c2[C@@H](NC(=O)C[C@@H](C)O)CC3` [Compound 26] are within 1.5-fold of each other in EC50: 2.6 nM for the first, 2.9 nM for the second.

Same assay, conditions: read-out: Jeko-1 EC50; Jeko-1 cells, 3000 cells/well; compounds added Day 1; CellTiter-Glo 2.0 luminescence read on Day 4 or 5

Compared with `CC[C@@]1(O)C(=O)OCc2c1cc1n(c2=O)Cc2c-1nc1cc(F)c(C)c3c1c2[C@@H](NC(=O)C(C)(O)CO)CC3` (single isomer, unassigned) [Compound 4], `CC[C@@]1(O)C(=O)OCc2c1cc1n(c2=O)Cc2c-1nc1cc(F)c(C)c3c1c2[C@@H](NC(=O)C(C)(F)CO)CC3` (single isomer, unassigned) [Compound 37] is 2.6-fold higher in EC50: 1.2 nM for the first, 3.1 nM for the second.

`CC[C@@]1(O)C(=O)OCc2c1cc1n(c2=O)Cc2c-1nc1cc(F)c(C)c3c1c2[C@@H](NC(=O)C(C)(O)CO)CC3` (single isomer, unassigned) [Compound 5] and `CC[C@@]1(O)C(=O)OCc2c1cc1n(c2=O)Cc2c-1nc1cc(F)c(C)c3c1c2[C@@H](NC(=O)C(C)(CCO)C(F)F)CC3` (single isomer, unassigned) [Compound 40] are within 1.5-fold of each other in EC50: 6.7 nM for the first, 4.6 nM for the second.

`CC[C@@]1(O)C(=O)OCc2c1cc1n(c2=O)Cc2c-1nc1cc(F)c(C)c3c1c2[C@@H](NC(=O)C(F)(F)C(C)O)CC3` (single isomer, unassigned) [Compound 8] and `CC[C@@]1(O)C(=O)OCc2c1cc1n(c2=O)Cc2c-1nc1cc(F)c(C)c3c1c2[C@@H](NC(=O)C(C)(N)C(F)(F)F)CC3` (single isomer, unassigned) [Compound 17] are within 1.5-fold of each other in EC50: 1.6 nM for the first, 2 nM for the second.

Going from `CC[C@@]1(O)C(=O)OCc2c1cc1n(c2=O)Cc2c-1nc1cc(F)c(C)c3c1c2[C@@H](NC(=O)C(CO)C(F)(F)F)CC3` (single isomer, unassigned) [Compound 11] to `CC[C@@]1(O)C(=O)OCc2c1cc1n(c2=O)Cc2c-1nc1cc(F)c(C)c3c1c2[C@@H](NC(=O)C(N)C(F)(F)F)CC3` (single isomer, unassigned) [Compound 15], the EC50 falls from 5.3 nM to 2.9 nM (1.8-fold). The second is the more potent here.

First: CC[C@@]1(O)C(=O)OCc2c1cc1n(c2=O)Cc2c-1nc1cc(F)c(C)c3c1c2[C@@H](NC(=O)C(N)(Cc1ccccc1)C(F)(F)F)CC3 (single isomer, unassigned) [Compound 18]
Second: CC[C@@]1(O)C(=O)OCc2c1cc1n(c2=O)Cc2c-1nc1cc(F)c(C)c3c1c2[C@@H](NC(=O)C(F)CO)CC3 (single isomer, unassigned) [Compound 34]
The EC50 of the first is 10-fold higher: 44 nM for the first, 4.3 nM for the second. The second is the more potent here.

First: CC[C@@]1(O)C(=O)OCc2c1cc1n(c2=O)Cc2c-1nc1cc(F)c(C)c3c1c2[C@@H](NC(=O)C(N)(Cc1ccccc1)C(F)(F)F)CC3 (single isomer, unassigned) [Compound 19]
Second: CC[C@@]1(O)C(=O)OCc2c1cc1n(c2=O)Cc2c-1nc1cc(F)c(C)c3c1c2[C@@H](NC(=O)C(F)CO)CC3 (single isomer, unassigned) [Compound 35]
The EC50 of the first is 3.8-fold higher: 5.7 nM for the first, 1.5 nM for the second. The second is the more potent here.

With `CC[C@@]1(O)C(=O)OCc2c1cc1n(c2=O)Cc2c-1nc1cc(F)c(C)c3c1c2[C@@H](NC(=O)C(CO)C1CC1)CC3` (single isomer, unassigned) [Compound 23] the EC50 was 4.6 nM.
